Entries after “also recorded” stand apart in the source; their conditions may differ.
How the values were obtained:
[1] = Single ascending dose study: pharmacokinetics (plasma, CSF); assay type: in vivo
Procedure: (§1) Compound 1 was administered in a single ascending dose (SAD) study conducted in approximately 54 healthy adult volunteers to investigate Compound 1 pharmacokinetics, safety, and tolerability. The study was conducted in two groups.
(§2) Group 2 evaluated tolerability of Compound 1 at Group 1 MTD with or without fesoterodine fumarate co-administration. Subjects received 8 mg of fesoterodine fumarate tablet or matched placebo tablet 4 hours prior to administration of 40 mg of Compound 1.

[2] = system: Amphetamine-Induced Hyperlocomotion; assay: Compound 1 effect on amphetamine-induced hyperlocomotion (open field); assay type: in vivo, mice; details: for average (mean) centimeters traveled over 30 minutes: open field, vehicle cohort 7500 cm
Procedure: The hyperdopaminergic state underlying LID was modeled in naïve male wild-type c57/B16 mice by administration of d-amphetamine, a drug which rapidly elevates synaptic dopamine levels.
A single dose of 3 mg/kg of intraperitoneal (IP) d-amphetamine was administered to 32 male wild-type c57/B16 mice at approximately 8-weeks of age. Subsequently, the animals were subdivided into 3 groups and co-administered either a single dose of intraperitoneal vehicle only, Compound 1 at 0.3 mg/kg, or Compound 1 at 1 mg/kg. The locomotor behavior of the animals in an open field chamber (44 cm×44 cm×20 cm dimension) was monitored using a video tracking system (Noldus EthoVision v15). Over 30 minutes, the average (mean) centimeters traveled (+standard deviation) identified were: • 7500 cm (±314.9) in vehicle cohort • 5141 cm (±805.6) in the Compound 1 0.3 mg/kg cohort ([…] one-way ANOVA followed by Tukey's multiple comparison) • 2008 cm (±406.2) in the Compound 1 1.0 mg/kg cohort (p <0.001)

[3] = Plasma concentrations during 7-day oral dosing in beagle dogs; assay type: in vivo; details: male, beagle, dog, in vivo, po, 1.5 mg/kg/day
[4] = Clinical observations during 7-day oral dosing in beagle dogs; details: Group 1: Compound 1 1.5 mg/kg/day PO, individual dog, 1.5 mg/kg/day
[5] = Single ascending dose study with or without fesoterodine fumarate: safety and tolerability; assay type: in vivo, healthy adult volunteers
Procedure: as §1
Group 1 evaluated multiple dose cohorts administered Compound 1 in a single ascending dose (SAD) manner to establish a maximum tolerated dose (MTD) using the doses described in Table 10.
(§3) MTD was established at the dose which produced mild to moderate cholinergic adverse effects. Cholinergic effects were monitored for each dose, including pupillometry and salivation.
as §2

[6] = system: Compound 1 induced salivation; assay: Fesoterodine dose-response antagonistic effect on Compound 1 induced salivation in anaesthetized rats; assay type: in vivo, Sprague Dawley rats
Procedure: (§4) An in vivo primary pharmacology study evaluating the fesoterodine fumarate dose-response antagonistic effect on Compound 1 induced salivation in anaesthetized male Sprague Dawley rats was conducted. […] Intravenous fesoterodine doses were administered at […]. Fesoterodine was dosed 10 minutes prior to dosage of Compound 1. All animals were normal with no observed abnormality detected in clinical signs or behavior. Salivation was measured by using oral dry swab in anesthetized rats with the calculated difference between the dry swab weight and the wet swab weight indicating the weight of saliva produced. Samples were collected post-dosing for one hour at 10-minute intervals.

[7] = Post-procedure plasma exposure (salivation study); assay type: in vivo, Sprague Dawley rats; details: male, Sprague Dawley, rat, in vivo, 1.5 mg/kg, Plasma Concentration 1-Hour Post-procedure (mean value), Compound 1
Procedure: as §4
At the end of the study period, plasma samples were collected to measure exposure of Compound 1, fesoterodine fumarate, and fesoterodine active metabolite 5-hydroxymethyl tolterodine (5-HMT), also referred to as desfesoterodine, is summarized in Table 2.

salivation = assay: Single ascending dose study: salivation (pharmacodynamics); assay type: in vivo, healthy adult volunteers; details: Group 1, 1-40 mg Compound 1 (FIG. 1)
Procedure: as §3, §2

[8] = Plasma pharmacokinetics after single-dose intravenous administration in rats; assay type: in vivo, Sprague Dawley rats; details: rat, in vivo, iv, 1.5 mg/kg
Procedure: The plasma concentration-time profile was evaluated for fesoterodine active metabolite desfesoterodine and Compound 1 in male Sprague Dawley rats following single-dose intravenous administration of fesoterodine (0.25 mg/kg) and Compound 1 (0.5 mg/kg and 1.5 mg/kg) alone and single-dose co-administration. Plasma exposures of desfesoterodine were similar following administration of fesoterodine alone and in combination with Compound 1.

[9] = Group 2, 40 mg Compound 1, 8 mg fesoterodine fumarate
[10] = Plasma concentration of Compound 1, Mean
[11] = Group 2: 40 mg Compound 1, 4 hours after 8 mg fesoterodine fumarate tablet or placebo tablet
[12] = Compound 1 (1.5 mg/kg) IV alone

Cc1noc([C@@]23CNC[C@@H]2C3)n1 [Compound 1, 1-(3-methyl-[1,2,4]oxadiazol-5-yl)-(1R,5R)-3-aza-bicyclo[3.1.0]hexane]
increase in exposure of Compound 1 following co-administration of fesoterodine fumarate, AUC0-inf [1, 9]: 29.0% | increase in exposure of Compound 1 following co-administration of fesoterodine fumarate, AUC0-t [1, 9]: 30.0% | increase in exposure of Compound 1 following co-administration of fesoterodine fumarate, Cmax ([1]; Group 2, 40 mg Compound 1, 8 mg fesoterodine fumarate, p-value: 0.0347): 50.0% | compound 1 concentration in CSF at 1hour post-dose, mean ([1]; human, in vivo, 1 h): 50.30 ng/mL | mean compound 1 concentration in CSF at 1 hour post-dose ([1]; human, in vivo, 1 h): 56.96 ng/mL | Tmax ([1]; human, in vivo, single oral doses, healthy subjects, read-out: median tmax): 39 to 70.2 min | effect on hyperdopaminergic-mediated motor behavior ([2]; 0.3 and 1 mg/kg IP, d-amphetamine-treated mice): reverses hyperdopaminergic-mediated motor behavior in a dose-dependent manner | average (mean) centimeters traveled over 30 minutes ([2]; Compound 1 0.3 mg/kg IP co-administered with d-amphetamine 3 mg/kg IP, p<0.5): 5141 cm | average (mean) centimeters traveled over 30 minutes ([2]; Compound 1 1.0 mg/kg IP co-administered with d-amphetamine 3 mg/kg IP, p <0.001): 2008 cm | Plasma concentration of Compound 1, Mean ([3]; 1 h): 387 ng/mL | Plasma concentration of Compound 1, Mean ([3]; 2 h): 470.6 ng/mL | Plasma concentration of Compound 1, Mean ([3]; 4 h): 99.48 ng/mL | Plasma concentration of Compound 1, Mean ([3]; 8 h): 17.098 ng/mL | concentration at 1 h [3, 10]: 378 ng/mL | concentration at 2 h [3, 10]: 288 ng/mL | concentration at 4 h [3, 10]: 98.6 ng/mL | concentration at 8 h [3, 10]: 14.7 ng/mL | Clinical Observation ([4]; day 1): For D1005, ptyalism was found 1 hr 20 min after dosing on day 1; also recorded: For D1001, soft feces were found 1 hr 45 min after dosing on day 1; also recorded: For D1005, about 4 mL white foamy mucoid vomitus was found 40 min; also recorded: For D1005, soft feces was found 1 hr after dosing on day 1; also recorded: For D1005, about 8 mL yellow foamy mucoid vomitus was found 1 hr | Clinical Observation ([4]; day 3): For D1005, 20 mL chyme was found 45 min after dosing on day 3; also recorded: For D1005, soft feces was found 80 min after dosing on day 3; also recorded: For D1005, 20 mL liquid feces was found 3.5 hr after dosing on day 3; also recorded: For D1001, ptyalism was found 2 hr after dosing on day 3. 8 hr recover; also recorded: For D1001, 20 mL chyme and ptyalism were found 3.5 hr after dosing; also recorded: For D1002, 10 mL chyme was found 55 min after dosing on day 3; also recorded: For D1002, 10 mL liquid feces and ptyalism were found 80 min after; also recorded: For D1002, ptyalism was found 2 hr after dosing on day 3. 8 hr recover; also recorded: For D1003, ptyalism was found 2 hr after dosing on day 3. 8 hr recover; also recorded: For D1003, 10 mL chyme, 5 mL liquid feces and ptyalism were found; also recorded: For D1003, 10 mL liquid feces and ptyalism were found 4 hr after; also recorded: For D1004, 15 mL chyme and soft feces were found 55 min after dosing; also recorded: For D1004, 2 mL liquid feces and ptyalism were found 80 min after; also recorded: For D1004, 20 mL chyme was found 90 min after dosing on day 3; also recorded: For D1004, ptyalism was found 2 hr after dosing on day 3. 8 hr recover; also recorded: For D1001, 10 mL chyme was found 55 min after dosing on day 3 | Clinical Observation ([4]; day 4): For D1005, 15 mL chyme was found 40 min after dosing on day 4; also recorded: For D1005, 10 mL chyme and 10 mL liquid feces were found 2 hr after; also recorded: For D1001, 15 mL chyme was found 2 hr after dosing on day 4; also recorded: For D1001, ptyalism and 15 mL liquid feces were found 3 hr after; also recorded: For D1002, 15 mL chyme and 10 mL liquid feces were found 2 hr after; also recorded: For D1002, ptyalism and 5 mL liquid feces were found 3 hr after dosing; also recorded: For D1003, soft feces was found 3 hr after dosing on day 4; also recorded: For D1004, ptyalism was found 2 hr after dosing on day 4; also recorded: For D1004, 8 mL liquid feces was found 3 hr after dosing on day 4; also recorded: For D1004, soft feces was found 220 min after dosing on day 4 | Clinical Observation ([4]; day 5): For D1003, 5 mL chyme was found 2 hr after dosing on day 5. | Clinical Observation ([4]; day 6): For D1005, 15 mL chyme, 30 mL liquid feces and ptyalism were found; also recorded: For D1005, 15 mL chyme was found 2 hr after dosing on day 6; also recorded: For D1001, ptyalism was found 30 min after dosing on day 6. 8 hr; also recorded: For D1001, ptyalism and soft feces were found 1 hr after dosing on day 6; also recorded: For D1002, ptyalism was found 30 min after dosing on day 6. 8 hr; also recorded: For D1002, 10mL liquid feces and ptyalism were found 1 hr after dosing; also recorded: For D1002, 20 mL chyme, 10 mL liquid feces and ptyalism were found; also recorded: For D1003, ptyalism was found 30 min after dosing on day 6. 8 hr; also recorded: For D1003, 30 mL liquid feces, ptyalism and tremor were found 2 hr; also recorded: For D1003, 10 mL chyme was found 3 hr after dosing on day 6; also recorded: For D1004, 10 mL liquid feces and ptyalism were found 1 hr after; also recorded: For D1004, 5 mL chyme was found 3 hr after dosing on day 6 | Clinical Observation ([4]; day 7): For D1005, about 8 mL liquid feces was found 2 hr after dosing on day 7; also recorded: For D1001, ptyalism was found 1 hr after dosing on day 7. 4 hr recover; also recorded: For D1001, miosis was found 1 hr after dosing on day 7. 8 hr recover; also recorded: For D1001, about 5 mL liquid feces and about 3 mL yellow liquid; also recorded: For D1002, ptyalism was found 1 hr after dosing on day 7. 4 hr recover; also recorded: For D1003, ptyalism was found 1 hr after dosing on day 7. 4hr recover; also recorded: For D1003, about 10 mL liquid feces was found 2 hr after dosing on day 7; also recorded: For D1004, ptyalism was found 1 hr after dosing on day 7. 4 hr recover; also recorded: For D1004, about 3 mL yellow liquid vomitus was found 1 hr after | subjects who reported TEAEs ([5]; Group 1, 1 mg, placebo 50.0%): ~33.3% | subjects who reported TEAEs ([5]; Group 1, 3 mg, placebo 50.0%): About 50.0% | subjects who reported TEAEs ([5]; Group 1, 10 mg, placebo 50.0%): About 50.0% | subjects who reported TEAEs ([5]; Group 1, 20 mg, placebo 50.0%): About 50.0% | subjects who reported TEAEs ([5]; Group 1, 40 mg, placebo 50.0%): ~83.3% | subjects who reported TEAEs ([5]; Group 1, 60 mg, placebo 50.0%): ~100% | deaths, serious TEAEs, discontinuations ([5]; Group 1, 1-60 mg single oral dose): no deaths or serious TEAEs reported, and no subjects discontinued the study due to a TEAE | total treatment-emergent adverse events (TEAEs) ([5]; Group 1, 36 subjects who received any dose of compound 1 (1-60 mg single oral)): 95 | subjects with TEAEs (number of the 36 subjects) ([5]; Group 1, any dose of compound 1): 22 | subjects with TEAEs ([5]; Group 1, any dose of compound 1, of the 36 subjects): 61.6% | day of onset of TEAEs (Day 1 = day of dosing) [5, 11]: 1 days | deaths, serious or severe TEAEs [5, 11]: no deaths, serious or severe TEAEs reported | most frequent TEAEs observed [5, 11]: salivary hypersecretion and dizziness | number of TEAEs reported [5, 11]: 9 | subjects who reported TEAEs [5, 11]: 100.0% | MTD of Compound 1 when administered alone ([5]; single oral dose, healthy subjects): 40 mg | safety and tolerability ([5]; single oral doses ranging from 1 mg to 40 mg, healthy subjects): generally safe and well tolerated | Salivation (mg) (mean value), 10 min [6, 12]: 414.44 mg | Salivation (mg) (mean value), 20 min [6, 12]: 126.95 mg | Salivation (mg) (mean value), 30 min [6, 12]: 59.21 mg | Salivation (mg) (mean value), 40 min [6, 12]: 61.22 mg | Salivation (mg) (mean value), 50 min [6, 12]: 24.79 mg | Salivation (mg) (mean value), 60 min [6, 12]: 22.15 mg | Salivation (mg) (mean value), Total [6, 12]: 708.76 mg | effect on salivation compared to 0.9% saline vehicle control ([6]; Compound 1 IV alone): significant effect in increase in salivation | concentration at 1 h [7]: 608 ng/mL | change in salivation with dose (salivation): increase in salivation was observed with increasing dose | Vss as fold of total body water (0.7 L/kg) ([8]; male, Sprague Dawley): approximately 2.4 fold | plasma clearance as % of the normal liver blood flow in rats (55 mL/min/kg) ([8]; male, Sprague Dawley): approximately 50% | AUC(0-t) ([8]; male, Sprague Dawley, AUClast of Compound 1): 917 ng·h/mL | C0 ([8]; male, Sprague Dawley, C0 of Compound 1): 1520 ng/mL | clearance ([8]; male, Sprague Dawley, CL of Compound 1): 27.2 mL/min/kg | half-life ([8]; male, Sprague Dawley, T1/2 of Compound 1): 49.8 min | Vd ([8]; male, Sprague Dawley, VSS of Compound 1): 1.71 L/kg | PK parameters of Compound 1, single-agent vs co-administration with fesoterodine [8]: comparable

From patent publication US20250032460A1, “METHODS OF TREATING NEUROLOGICAL DISORDERS” (MapLight Therapeutics, Inc., priority 2021, published 2025)
